{"source": "patent US11001591B2", "about": "“TRAF 6 inhibitors” (HELMHOLTZ ZENTRUM MUENCHEN—DEUTSCHES FORSCHUNGSZENTRUM FÜR …, priority 2016, dated 2021)", "key": {"TRAF6-UBC13 interaction": {"molecular_target": "T1, TRAF6-UBC13 interaction (Homo sapiens, UniProt Q9Y4K3)", "T1 construct": "RING-Zincfinger1 (RZ1) domain (residues 50-159) of TRAF6 wildtype; made in house; host or cells: E. coli BL21 codon plus RIPL", "T1 sequence (Q9Y4K3 50-159)": "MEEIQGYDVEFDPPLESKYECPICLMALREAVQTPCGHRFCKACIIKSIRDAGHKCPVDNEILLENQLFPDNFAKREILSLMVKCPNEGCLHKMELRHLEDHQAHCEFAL", "experiment": "ALPHAScreen TRAF6WTStrepII-Ubc13FH interaction assay", "type": "binding", "description": "In order to identify small molecules that specifically target the RZ1 domain of TRAF6 and thereby prevent its binding to Ubc13, the ALPHAScreen technology (PerkinElmer) was chosen to detect TRAF6WTStrepII-Ubc13FH interaction in High-Throughput-Screenings as well as Structure Activity Relationship (SAR) analysis.\nFor performance of an automated ALPHAScreen assay, all following components were pre-diluted in ALPHAScreen buffer (1×PBS, 0.5% BSA, 0.01% Tween-20). First, the TRAF6 protein (end concentration 100 nM, 30 μL volume) was added to 384-well-opti-plates involving the MultiFlo dispensing system (BioTek) followed by transfer of the compounds via the Sciclone G3 transfer station (PerkinElmer). After addition of Ubc13FH (end concentration 75 nM, 10 μL volume) with the MultiFlo system and incubation for one hour at room temperature, both beads (Strep-Tactin Alpha Donor beads and Nickel-Chelate acceptor beads; end concentrations 4 μg each, 10 μL volume each) were mixed and added using the MultiFlo system in subdued light. Read-out of the plates occurred after another hour of incubation at room temperature. Statistical parameters including the coefficient of variation, Z′ factor and signal window were calculated to determine the quality of the HTS campaign. To evaluate the efficacy of the compounds, ALPHAScreen units of compound-treated samples were referred to DMSO control treated samples. Thereby, the TRAF6D57K mutant served as the control for minimum signal and was included on every plate of the screening. Compounds that inhibited TRAF6WTStrepII-Ubc13FH by more than 25% were considered as actives. After elimination of ALPHAScreen frequent hitter compounds and His-tag frequent hitters (Schorpp, K., I. Rothenaigner, E. Salmina, et al., Identification of Small-Molecule Frequent Hitters from AlphaScreen High-Throughput Screens. J Biomol Screen, 2014. 19(5): p. 715-26), 178 compounds were defined as primary hits and were subsequently tested in five-point serial dilution assays (2.5-40 μM) in TRAF6WTStrepII-Ubc13FH ALPHAScreen experiments. Only compounds with dose-dependent effects on TRAF6WTStrepII-Ubc13FH (n=27) were taken for further research. For analog testing, all compounds were analyzed in ten-point titration (0.2-100 μM) in TRAF6WTStrepII-Ubc13FH ALPHAScreen experiments. In parallel, the compounds were tested in the ALPHAScreen TruHits Kit (PerkinElmer) to rule out unspecific interference with the ALPHAScreen technology."}, "TRAF6-Ubc13 binding": {"molecular_target": "T2, TRAF6-Ubc13 binding (Homo sapiens, UniProt Q9Y4K3)", "T2 construct": "RING-Zincfinger1 (RZ1) domain (residues 50-159) of TRAF6 wildtype; expressed in transfected cells; host or cells: HEK 293T", "T2 sequence (Q9Y4K3 50-159)": "T1 sequence (Q9Y4K3 50-159)", "experiment": "Co-immunoprecipitation of HA-TRAF6 and endogenous Ubc13 in HEK 293T cells", "type": "cell-based", "protocol": "To study the interaction of TRAF6 and Ubc13 in cells, 1×10^6 293T cells were seeded and after 18 hours cells were transfected with lpg pEF-HA empty or pEF-HA-TRAF6 RZ1 plasmid using the X-tremeGENE HP DNA transfection reagent (Roche). 6 hours upon transfection, cells were treated with compound or DMSO. After 42 hours further incubation, cells were harvested in Co-IP lysis buffer and HA-TRAF6 was immunoprecipitated with anti-HA affinity matrix (Roche). Binding of Ubc13 to TRAF6 was examined in Western Blot analysis."}}, "note": "Entries after “also recorded” stand apart in the source; their conditions may differ. Where two headings read alike, the source gives them in different places.", "data": [{"smiles": "Cc1nn(-c2ccc3nnc(C)n3n2)c(C)c1CCC(=O)NCCSCc1ccco1", "note": "[Compound 27, 3-(3,5-dimethyl-1-(3-methyl-[1,2,4]triazolo[4,3-b]pyridazin-6-yl)-1H-pyrazol-4-yl)-N-(2-((furan-2-ylmethyl)thio)ethyl)propanamide]", "values": [{"measurement": "inhibition at 100 µM", "setting": "TRAF6-UBC13 interaction; inhibition of TRAF6-UBC13 interaction, read-out: IC50 Alphascreen", "result": "≥ 30", "unit": "%"}]}, {"smiles": "Cc1nn(-c2ccc3nnc(C)n3n2)c(C)c1CCC(=O)N1CCN(Cc2ccccc2)CC1", "note": "[Compound 28, 1-(4-benzylpiperazin-1-yl)-3-(3,5-dimethyl-1-(3-methyl-[1,2,4]triazolo[4,3-b]pyridazin-6-yl)-1H-pyrazol-4-yl)propan-1-one]", "values": [{"measurement": "interaction of endogenous Ubc13 with ectopically expressed HA-TRAF6", "setting": "TRAF6-Ubc13 binding", "result": "active in cells"}]}, {"smiles": "COc1cccc(CN2CCN(C(=O)CCc3c(C)nn(-c4ccc5nnc(C)n5n4)c3C)CC2)c1", "note": "[Compound 29, 3-(3,5-dimethyl-1-(3-methyl-[1,2,4]triazolo[4,3-b]pyridazin-6-yl)-1H-pyrazol-4-yl)-1-(4-(3-methoxybenzyl)piperazin-1-yl)propan-1-one]", "values": [{"measurement": "interaction of endogenous Ubc13 with ectopically expressed HA-TRAF6", "setting": "TRAF6-Ubc13 binding", "result": "active in cells"}]}, {"smiles": "Cc1nn(-c2ccc3nnc(C)n3n2)c(C)c1CCC(=O)N1CCN(Cc2ccc(F)cc2)CC1", "note": "[Compound 30, 3-(3,5-dimethyl-1-(3-methyl-[1,2,4]triazolo[4,3-b]pyridazin-6-yl)-1H-pyrazol-4-yl)-1-(4-(4-fluorobenzyl)piperazin-1-yl)propan-1-one]", "values": [{"measurement": "interaction of endogenous Ubc13 with ectopically expressed HA-TRAF6", "setting": "TRAF6-Ubc13 binding", "result": "active in cells"}]}, {"smiles": "Cc1nn(-c2ccc3nnc(C)n3n2)c(C)c1CCC(=O)N1CCC(Cc2ccccc2)C1", "note": "(stereo not drawn) [Compound 31, 1-(3-benzylpyrrolidin-1-yl)-3-(3,5-dimethyl-1-(3-methyl-[1,2,4]triazolo[4,3-b]pyridazin-6-yl)-1H-pyrazol-4-yl)propan-1-one]", "values": [{"measurement": "interaction of endogenous Ubc13 with ectopically expressed HA-TRAF6", "setting": "TRAF6-Ubc13 binding; listed as HZM06-4", "result": "active in cells; also recorded: most active analogs"}, {"measurement": "inhibitory activity in ALPHAScreen", "setting": "TRAF6-UBC13 interaction; serial dilution", "result": "most prominent effect"}]}, {"smiles": "Cc1nn(-c2ccc3nnc(C)n3n2)c(C)c1CCC(=O)N1CCC(c2ccccc2)CC1", "note": "[Compound 32, 3-(3,5-dimethyl-1-(3-methyl-[1,2,4]triazolo[4,3-b]pyridazin-6-yl)-1H-pyrazol-4-yl)-1-(4-phenylpiperidin-1-yl)propan-1-one]", "values": [{"measurement": "interaction of endogenous Ubc13 with ectopically expressed HA-TRAF6", "setting": "TRAF6-Ubc13 binding", "result": "active in cells"}]}, {"smiles": "Cc1nn(-c2ccc3nnc(C)n3n2)c(C)c1CCC(=O)N1CCC(c2ccccn2)CC1", "note": "[Compound 33, 3-(3,5-dimethyl-1-(3-methyl-[1,2,4]triazolo[4,3-b]pyridazin-6-yl)-1H-pyrazol-4-yl)-1-(4-(pyridin-2-yl)piperidin-1-yl)propan-1-one]", "values": [{"measurement": "interaction of endogenous Ubc13 with ectopically expressed HA-TRAF6", "setting": "TRAF6-Ubc13 binding; listed as HZM06-7", "result": "active in cells; also recorded: most active analogs"}]}, {"smiles": "COc1cccc(CC2CCN(C(=O)CCc3c(C)nn(-c4ccc5nnc(C)n5n4)c3C)CC2)c1", "note": "[Compound 34, 3-(3,5-dimethyl-1-(3-methyl-[1,2,4]triazolo[4,3-b]pyridazin-6-yl)-1H-pyrazol-4-yl)-1-(4-(3-methoxybenzyl)piperidin-1-yl)propan-1-one]", "values": [{"measurement": "interaction of endogenous Ubc13 with ectopically expressed HA-TRAF6", "setting": "TRAF6-Ubc13 binding; listed as HZM06-8", "result": "active in cells; also recorded: most active analogs"}]}, {"smiles": "Cc1nn(-c2ccc3nnc(C)n3n2)c(C)c1CCC(=O)N1CCC(Cc2ccc(F)cc2)CC1", "note": "[Compound 35, 3-(3,5-dimethyl-1-(3-methyl-[1,2,4]triazolo[4,3-b]pyridazin-6-yl)-1H-pyrazol-4-yl)-1-(4-(4-fluorobenzyl)piperidin-1-yl)propan-1-one]", "values": [{"measurement": "interaction of endogenous Ubc13 with ectopically expressed HA-TRAF6", "setting": "TRAF6-Ubc13 binding; listed as HZM06-9", "result": "active in cells; also recorded: most active analogs"}]}, {"smiles": "Cc1nn(-c2ccc3nnc(C)n3n2)c(C)c1CCC(=O)N1CCC(Cc2ccccn2)CC1", "note": "[Compound 36, 3-(3,5-dimethyl-1-(3-methyl-[1,2,4]triazolo[4,3-b]pyridazin-6-yl)-1H-pyrazol-4-yl)-1-(4-(pyridin-2-ylmethyl)piperidin-1-yl)propan-1-one]", "values": [{"measurement": "interaction of endogenous Ubc13 with ectopically expressed HA-TRAF6", "setting": "TRAF6-Ubc13 binding", "result": "active in cells"}]}, {"smiles": "COc1cccc(N2CCN(C(=O)CCc3c(C)nn(-c4ccc5nnc(C)n5n4)c3C)CC2)c1", "note": "[Compound 61, 3-(3,5-dimethyl-1-(3-methyl-[1,2,4]triazolo[4,3-b]pyridazin-6-yl)-1H-pyrazol-4-yl)-1-(4-(3-methoxyphenyl)piperazin-1-yl)propan-1-one]", "values": [{"measurement": "IC50", "setting": "TRAF6-UBC13 interaction; inhibition of TRAF6-UBC13 interaction", "result": "≤ 3", "unit": "µM"}]}]}
